Laboratory results as given in the NIST ThermoML archive (doi:10.1021/acs.jced.8b01205).
± gives the expanded uncertainty stated by the source.

Columns and labels:
[1] = Crystal; DSC
[2] = Molar enthalpy of transition or fusion; conditions: Crystal; DSC

**Q.** For `N#CCC(N)=O` [2-cyanoethanamide], which Triple point temperature [1] is on record?
**A.** 392.84 ± 1.2 K

**Q.** What about the “Molar enthalpy of transition or fusion” value [2] of the same molecule?
**A.** 5.41 ± 0.43 kcal/mol
